# Laboratory results as given in ChEMBL document CHEMBL5370528, “Synthesis-accessibility-oriented design of c-Jun N-terminal kinase 1 inhibitor” (Eur J Med Chem, 2023).
# pIC50: −log10 of the molar value. Activity calls are given as the source filed them. The calls are words filed in the database; no cut-off is given here.
# Legend:
# [1] = molecular target: CDK4/Cyclin D3 (Homo sapiens) (UniProt P11802+P30281); assay: Inhibition of CDK4/Cyclin D3 (unknown origin) at 1 uM preincubated for 10 mins followed by substrate addition and measured after 60 mins in the presence of ATP by ADP-Glo reagent based luminescence assay; format: protein-complex assay; details: time 70.0 min
# Mus musculus [2] = assay: Anti-fibrotic activity in bleomycin-induced C57BL/6 mouse model of pulmonary fibrosis assessed as alleviation of body weight loss at 25 to 75 mg/kg, po administered twice a day for 3 weeks; format: functional, organism-based; details: dose 25-75 mg/kg
# [3] = molecular target: c-Jun N-terminal kinase (Mus musculus) (UniProt Q91Y86+Q9WTU6+Q61831); assay: Inhibition of JNK in mouse NIH-3T3 cells assessed as inhibition of anisomycin-activated c-Jun phosphorylation preincubated for 1 hrs followed by anisomycin activation for 1 hrs by Western blot analysis; format: cell-based; details: NIH3T3, dose 2-50 µM, time 2.0 hrs
# [4] = Cmax in Sprague-Dawley rat at 5 mg/kg, iv by HPLC-UV analysis; format: ADME, organism-based; design: dose 5 mg/kg, route iv; details: in vivo
# [5] = molecular target: CDK2/Cyclin A2 (Homo sapiens) (UniProt P24941+P20248); assay: Inhibition of CDK2/Cyclin A2 (unknown origin) at 1 uM preincubated for 10 mins followed by substrate addition and measured after 60 mins in the presence of ATP by ADP-Glo reagent based luminescence assay relative to control; format: protein-complex assay; details: time 70.0 min
# [6] = Cmax in Sprague-Dawley rat at 75 mg/kg, po by HPLC-UV analysis; format: ADME, organism-based; design: dose 75 mg/kg, route po; details: in vivo
# [7] = molecular target: c-Jun N-terminal kinase, JNK (Homo sapiens) (UniProt P45983+P53779+P45984); assay: Inhibition of JNK in HFL1 cells assessed as inhibition of anisomycin-activated c-Jun phosphorylation preincubated for 1 hrs followed by anisomycin activation for 1 hrs by Western blot analysis; format: cell-based; details: dose 2-50 µM, time 2.0 hrs
# [8] = molecular target: T1, Mitogen-activated protein kinase 8 (Homo sapiens, UniProt P45983); assay: Inhibition of N-terminal GST-tagged recombinant full length human JNK1 expressed in baculovirus infected Sf9 insect cells using IPTTPITTTYFFFKKK as substrate at 1 uM incubated for 60 mins in the presence of ATP by ADP-Glo reagent based luminescence assay relative to control
# [9] = molecular target: Mitogen-activated protein kinase 3 (Homo sapiens) (UniProt P27361); assay: Inhibition of ERK1 (unknown origin) at 1 uM preincubated for 10 mins followed by substrate addition and measured after 60 mins in the presence of ATP by ADP-Glo reagent based luminescence assay relative to control; details: time 70.0 min
# Mus musculus [10] = assay: Anti-fibrotic activity in bleomycin-induced C57BL/6 mouse model of pulmonary fibrosis assessed as increase in respiratory function by measuring minute volume at 25 to 75 mg/kg, po administered twice a day for 3 weeks by spirometry analysis; format: functional, organism-based; details: dose 25-75 mg/kg
# [11] = molecular target: T1, Mitogen-activated protein kinase 8; assay: Inhibition of N-terminal GST-tagged recombinant full length human JNK1 expressed in baculovirus infected Sf9 insect cells using IPTTPITTTYFFFKKK as substrate incubated for 60 mins in the presence of ATP by ADP-Glo reagent based luminescence assay
# [12] = AUC(0 to infinity) in Sprague-Dawley rat at 5 mg/kg, iv by HPLC-UV analysis; format: ADME, organism-based; design: dose 5 mg/kg, route iv; details: in vivo
# [13] = molecular target: T2, Dual specificity mitogen-activated protein kinase kinase 4 (Homo sapiens) (UniProt P45985); assay: Inhibition of MAP2K4 (unknown origin) at 1 uM preincubated for 10 mins followed by substrate addition and measured after 60 mins in the presence of ATP by ADP-Glo reagent based luminescence assay relative to control; details: time 70.0 min
# T2 sequence (whole entry): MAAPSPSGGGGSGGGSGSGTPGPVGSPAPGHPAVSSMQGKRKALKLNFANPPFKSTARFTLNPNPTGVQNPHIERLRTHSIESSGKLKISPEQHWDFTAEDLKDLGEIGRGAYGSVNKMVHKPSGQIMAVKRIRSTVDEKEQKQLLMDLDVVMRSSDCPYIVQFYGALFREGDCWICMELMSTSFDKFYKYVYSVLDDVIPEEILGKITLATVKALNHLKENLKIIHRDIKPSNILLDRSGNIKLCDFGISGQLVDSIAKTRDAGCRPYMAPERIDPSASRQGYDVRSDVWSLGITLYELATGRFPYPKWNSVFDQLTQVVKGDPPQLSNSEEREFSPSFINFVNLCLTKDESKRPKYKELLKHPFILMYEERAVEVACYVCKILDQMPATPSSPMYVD
# [14] = molecular target: T3, Mitogen-activated protein kinase 9 (Homo sapiens, UniProt P45984); assay: Inhibition of N-terminal GST-tagged recombinant full length human JNK2 expressed in baculovirus infected Sf9 cells using IPTTPITTTYFFFKKK as substrate at 1 uM incubated for 60 mins in the presence of ATP by ADP-Glo reagent based luminescence assay relative to control
# Target sequence in this assay (P45984 whole entry, looked up): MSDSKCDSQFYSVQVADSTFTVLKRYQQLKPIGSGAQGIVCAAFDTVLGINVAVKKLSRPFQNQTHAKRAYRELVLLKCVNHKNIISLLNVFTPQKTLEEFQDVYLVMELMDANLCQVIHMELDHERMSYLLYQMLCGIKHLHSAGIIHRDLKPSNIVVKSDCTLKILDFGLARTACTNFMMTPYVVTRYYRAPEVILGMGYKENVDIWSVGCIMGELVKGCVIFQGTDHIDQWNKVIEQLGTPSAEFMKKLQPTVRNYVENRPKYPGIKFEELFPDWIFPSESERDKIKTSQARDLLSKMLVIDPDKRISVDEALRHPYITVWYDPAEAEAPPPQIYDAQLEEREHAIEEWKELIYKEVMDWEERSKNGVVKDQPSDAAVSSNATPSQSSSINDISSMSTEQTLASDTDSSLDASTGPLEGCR
# Mus musculus [15] = assay: Anti-fibrotic activity in bleomycin-induced C57BL/6 mouse model of pulmonary fibrosis assessed as increase in respiratory function by measuring expiratory volume at 25 to 75 mg/kg, po administered twice a day for 3 weeks by spirometry analysis; format: functional, organism-based; details: dose 25-75 mg/kg
# [16] = Half-life in Sprague-Dawley rat at 5 mg/kg, iv by HPLC-UV analysis; format: ADME, organism-based; details: in vivo
# [17] = molecular target: Mitogen-activated protein kinase 10 (Homo sapiens, UniProt P53779); assay: Inhibition of N-terminal GST-tagged recombinant full length human JNK3 expressed in baculovirus infected Sf9 cells using IPTTPITTTYFFFKKK as substrate at 1 uM incubated for 60 mins in the presence of ATP by ADP-Glo reagent based luminescence assay relative to control
# Mus musculus [18] = assay: Anti-fibrotic activity in bleomycin-induced C57BL/6 mouse model of pulmonary fibrosis assessed as reduction in collagen accumulation at 25 to 75 mg/kg, po administered twice a day for 3 weeks by Masson's trichome staining based analysis; format: functional, organism-based; details: dose 25-75 mg/kg
# [19] = molecular target: T3, Mitogen-activated protein kinase 9; assay: Inhibition of N-terminal GST-tagged recombinant full length human JNK2 expressed in baculovirus infected Sf9 cells using IPTTPITTTYFFFKKK as substrate incubated for 60 mins in the presence of ATP by ADP-Glo reagent based luminescence assay
# Target sequence in this assay (P45984 whole entry): as the sequence (P45984 whole entry, looked up) above
# [20] = molecular target: T1, Mitogen-activated protein kinase 8; assay: Inhibition of N-terminal GST-tagged recombinant full length human JNK1 expressed in baculovirus infected Sf9 insect cells using IPTTPITTTYFFFKKK as substrate at 0.1 uM incubated for 60 mins in the presence of ATP by ADP-Glo reagent based luminescence assay relative to control
# Mus musculus [21] = assay: Anti-fibrotic activity in bleomycin-induced C57BL/6 mouse model of pulmonary fibrosis assessed as alleviation of alveolar collapse in lungs at 25 to 75 mg/kg, po administered twice a day for 3 weeks by H&E staining based analysis; format: functional, organism-based; details: dose 25-75 mg/kg
# Mus musculus [22] = assay: Anti-fibrotic activity in bleomycin-induced C57BL/6 mouse model of pulmonary fibrosis assessed as alleviation of neutrophil infiltration in lungs at 25 to 75 mg/kg, po administered twice a day for 3 weeks by H&E staining based analysis; format: functional, organism-based; details: dose 25-75 mg/kg
# [23] = AUC (0 to infinity) in Sprague-Dawley rat at 75 mg/kg, po by HPLC-UV analysis; format: ADME, organism-based; design: dose 75 mg/kg, route po; details: in vivo
# [24] = Clearance in Sprague-Dawley rat at 75 mg/kg, po by HPLC-UV analysis; format: ADME, organism-based; details: in vivo
# T1 sequence (P45983 whole entry): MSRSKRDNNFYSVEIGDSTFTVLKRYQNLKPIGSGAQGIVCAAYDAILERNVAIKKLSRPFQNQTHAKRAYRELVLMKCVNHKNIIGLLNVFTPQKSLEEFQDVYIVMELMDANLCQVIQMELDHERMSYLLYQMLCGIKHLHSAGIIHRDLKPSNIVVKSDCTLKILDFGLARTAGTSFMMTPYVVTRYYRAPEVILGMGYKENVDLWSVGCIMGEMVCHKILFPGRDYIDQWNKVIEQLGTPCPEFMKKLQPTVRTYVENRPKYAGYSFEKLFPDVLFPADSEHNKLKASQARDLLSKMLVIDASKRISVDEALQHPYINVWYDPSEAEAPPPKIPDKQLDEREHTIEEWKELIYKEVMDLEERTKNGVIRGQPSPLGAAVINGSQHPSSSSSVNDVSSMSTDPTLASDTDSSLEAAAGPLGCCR
# Mitogen-activated protein kinase 10, sequence (P53779 whole entry): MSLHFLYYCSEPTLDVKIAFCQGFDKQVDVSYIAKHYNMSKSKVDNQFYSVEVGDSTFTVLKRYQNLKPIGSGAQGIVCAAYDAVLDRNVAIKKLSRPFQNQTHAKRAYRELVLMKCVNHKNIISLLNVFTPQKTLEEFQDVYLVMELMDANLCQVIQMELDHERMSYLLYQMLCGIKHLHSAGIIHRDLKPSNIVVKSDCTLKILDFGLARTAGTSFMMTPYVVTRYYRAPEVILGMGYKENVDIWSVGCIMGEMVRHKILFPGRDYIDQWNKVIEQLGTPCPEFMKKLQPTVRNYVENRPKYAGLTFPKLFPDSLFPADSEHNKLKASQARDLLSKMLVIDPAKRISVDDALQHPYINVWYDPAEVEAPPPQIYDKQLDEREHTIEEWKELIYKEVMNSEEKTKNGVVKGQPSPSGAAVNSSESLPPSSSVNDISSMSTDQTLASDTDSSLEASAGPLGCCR
# Mitogen-activated protein kinase 3 (Homo sapiens), sequence (P27361 whole entry): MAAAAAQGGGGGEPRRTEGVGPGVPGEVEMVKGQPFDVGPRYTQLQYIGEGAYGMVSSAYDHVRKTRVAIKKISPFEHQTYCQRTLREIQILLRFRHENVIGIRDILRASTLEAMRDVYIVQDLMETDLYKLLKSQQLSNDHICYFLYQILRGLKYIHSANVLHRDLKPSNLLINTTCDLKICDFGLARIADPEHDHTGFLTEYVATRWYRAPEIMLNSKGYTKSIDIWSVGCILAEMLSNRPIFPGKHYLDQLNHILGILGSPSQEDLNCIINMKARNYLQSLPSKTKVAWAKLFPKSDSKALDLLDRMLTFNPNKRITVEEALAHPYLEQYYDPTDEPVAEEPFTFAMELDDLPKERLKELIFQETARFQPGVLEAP
# c-Jun N-terminal kinase (Mus musculus), sequence (Q61831 whole entry, looked up): as the sequence (P53779 whole entry) above, with Q27H, Y32S, D267S, A345V, G412S, S432A counted along it
# c-Jun N-terminal kinase (Mus musculus), sequence (Q91Y86 whole entry, looked up): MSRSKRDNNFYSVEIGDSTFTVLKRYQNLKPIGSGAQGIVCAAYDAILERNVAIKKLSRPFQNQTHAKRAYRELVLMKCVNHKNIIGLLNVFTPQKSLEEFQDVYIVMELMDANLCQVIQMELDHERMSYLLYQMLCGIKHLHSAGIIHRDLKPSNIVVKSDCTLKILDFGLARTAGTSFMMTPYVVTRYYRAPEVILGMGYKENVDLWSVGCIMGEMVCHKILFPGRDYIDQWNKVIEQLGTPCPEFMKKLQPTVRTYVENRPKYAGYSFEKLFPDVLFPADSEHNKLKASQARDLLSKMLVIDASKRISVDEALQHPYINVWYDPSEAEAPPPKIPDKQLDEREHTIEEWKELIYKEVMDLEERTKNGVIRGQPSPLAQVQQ
# c-Jun N-terminal kinase (Mus musculus), sequence (Q9WTU6 whole entry, looked up): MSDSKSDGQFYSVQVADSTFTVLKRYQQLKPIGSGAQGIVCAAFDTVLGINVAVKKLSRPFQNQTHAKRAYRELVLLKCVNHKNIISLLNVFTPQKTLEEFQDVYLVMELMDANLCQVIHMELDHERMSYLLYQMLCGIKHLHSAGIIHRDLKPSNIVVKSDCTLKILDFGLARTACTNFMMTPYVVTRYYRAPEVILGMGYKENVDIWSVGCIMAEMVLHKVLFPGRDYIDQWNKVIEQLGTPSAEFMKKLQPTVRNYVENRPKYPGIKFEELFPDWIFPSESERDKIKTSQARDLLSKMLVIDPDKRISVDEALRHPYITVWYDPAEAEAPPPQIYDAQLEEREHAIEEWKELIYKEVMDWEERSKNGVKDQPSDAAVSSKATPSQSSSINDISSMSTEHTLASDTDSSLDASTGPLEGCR
smiles,measurement,setting,value
CC(C)(C)CNc1ncc(Br)c(Nc2ccccc2C(N)=O)n1,inhibition,[1],41.9%
same,Activity,Mus musculus [2],Active
same,inhibition,[3],Dose-Dependent Effect
same,Cmax,[4],453 ng/mL
same,inhibition,[5],36.1%
same,Cmax,[6],488 ng/mL
same,inhibition,[7],Dose-Dependent Effect
same,inhibition,[8],99%
same,inhibition,[9],25.9%
same,Activity,Mus musculus [10],Active
same,pIC50,[11],7.47
same,AUC(0-inf),[12],868 ng·h/mL
same,inhibition,[13],93.8%
same,inhibition,[14],101%
same,Activity,Mus musculus [15],Active
same,half-life,[16],2.09 h
same,inhibition,[17],99.6%
same,Activity,Mus musculus [18],Active
same,pIC50,[19],6.95
same,inhibition,[20],71.1%
same,Activity,Mus musculus [21],Active
same,Activity,Mus musculus [22],Active
same,AUC(0-inf),[23],1700 ng·h/mL
same,CL/F,[24],860 mL/min/kg
